# Source: US20210186947A1, “TOMM6-INTERACTING EXTRACTS AND COMPOUNDS FOR USE IN THE TREATMENT AND PROPHYLAXIS OF NERVOUS SYSTEM DISEASES, ATHEROSCLEROSIS, HEPATITIS B INFECTION AND HUMAN PAPILLOMA VIRUS (HPV) INFECTION” (ETH ZURICH, priority 2018, published 2021)
# Assays:
# [1] = test system: HPV-induced warts; experiment: Phase-1 placebo-controlled study of topical Compound-1 on flat warts; type: in vivo, human; details: once daily topical Compound-1-containing hydrogel (0.2%) for 3 weeks
# Procedure: The study analyzed the treatment effect of topical administration of Compound-1 on warts. The study was performed according to the study protocol. Study design: The study was a phase-1, placebo-controlled study of Compound-1. The primary end-point was safety and tolerability. Secondary objectives were treatment effects on wart lesion size. The study included a cohort of 6 voluntary research participants (6 males; age 36-72 years; all Caucasians) with diagnosed flat warts. A total number of 94 lesions were treated with Compound-1. Vehicle-treated warts (n=88) of each participant served as placebo group. Study participants received once daily topical applications of a Compound-1-containing hydrogel (0.2%) or vehicle for 3 weeks. The study participants were under the medical supervision of Dr. Raafat Mahmood Fawzy (Clinical Director, Rabaa El Adaweya Medical Central Hospital, Cairo, Egypt). Clinical laboratory parameters of all research participants were within the normal range before, during the study and after completion of the study (observation period 4 weeks). […] The study protocol was conducted in accordance with the Declaration of Helsinki. All research participants provided written informed consent before participation. Research participants had the possibility to withdraw at any time from the study. But all participants wanted to complete the study.
# A total number of 94 lesions were treated with Compound-1. Vehicle-treated warts (n=88) served as placebo. […] The treatment effect of Compound-1 against HPV infection is directly related to its activity as TOMM6 inducer/activator, which is a sufficient cause to inhibit (amyloidogenic) protein aggregation in cells and in vivo. In this context, HPV infection is another disease with causal involvement of an aggregation-prone amyloidogenic protein. Without wishing to be bound by theory, it is believed that Infections with human papillomaviruses (HPV) rely on the highly amyloidogenic protein E1AE4, also known as the HPV E4 protein (McIntosh et al., 82, 8196-8203 (2008)). The HPV E4 protein, which uses the amyloid-fold as does amyloid-beta, is the most abundantly expressed viral transcript/protein in HPV-infected epithelia, and mediates HPV-mediated disruption of cellular integrity, HPV release from infected epithelial cells and virus transmission (McIntosh et al., 82, 8196-8203 (2008); Doorbar, Virology 445, 80-98 (2013)). In HPV-induced warts, the aggregation-prone HPV E4 protein can constitute between 20% and 30% of the total wart protein (Doorbar et al., EMBO J. 5, 355-362 (1986)). The expression of E1AE4 relies on self-aggregation of the HPV E4 protein (Bryan et al., Virology 241, 49-60 (1998)).
# [2] = test system: Ccr9; experiment: Whole genome microarray gene expression analysis of aortic genes: Ccr9; type: in vivo; details: ApoE-/- mice, 10 mg/kg/day for 8 months
# Procedure: (§1) Whole genome microarray gene expression profiling was performed with aortic specimens isolated from 9-month-old ApoE−/− mice without treatment and with oral treatment for 8 months with alizarin (10 mg/kg/day), and untreated age-matched B6 control mice. Total RNA was isolated by the RNeasy Mini kit according to the protocol of the manufacturer (Qiagen). RNA purity was between 1.8 and 2 as determined by the absorbance ratio of 260/280. RNA quality and absence of signs of degradation were also controlled by RNA electrophoresis on a denaturing agarose gel by the presence of bright bands of 28S and 18S ribosomal RNA. Total RNA was processed for whole genome microarray gene expression profiling with the GeneChip One-Cycle Target Labeling System (Affymetrix) according to the protocol of the manufacturer (Affymetrix GeneChip Expression Analysis Technical Manual Rev. 5). […]
# (§2) Alzheimer's Disease (AD) is the most frequent form of dementia in the elderly. […] Atherosclerotic lesion area was assessed with oil red O-stained aortas isolated from 9-month-old ApoE−/− mice (FIG. 17A). […] The aortic expression levels of neuronal marker genes of alizarin-treated ApoE−/− mice were determined compared to untreated ApoE−/− mice and untreated B6 mice without atherosclerosis (FIG. 17D,E).
# [3] = test system: synaptosomal nerve-associated protein 25 (Snap25); experiment: Whole genome microarray gene expression analysis of aortic genes: Snap25; type: in vivo; details: ApoE-/- mice, 10 mg/kg/day for 8 months
# Procedure: as §1, §2
smiles,measurement,setting,value
"O=C1c2ccccc2C(=O)c2c1ccc(O)c2O [Compound-1, 1,2-dihydroxyanthraquinone]",response of treated warts,[1],showed a response
same,adverse effects (safety and tolerability),[1]; 6 participants,no adverse effects
same,lesions with complete response (100% decrease of the lesion area),[1]; 94 lesions,more than 86%
same,lesions with partial response (>50%-<100% decrease of lesion area),[1]; 94 lesions,13.8%
same,aortic expression of Ccr9,[2],significantly decreased expression
same,aortic expression level of Snap25,[3],not down-regulated and maintained at the levels of the non-transgenic B6 controls
